Measurements reported in patent US8003785B2 (Takeda Pharmaceutical Company Limited, priority 2008, dated 2011).

Biological target: T1, PLK1 (Homo sapiens, UniProt P53350)
T1 construct: Full-length, active GST-PLK1 is purified from Sf9 insect cells; made in house; host or cells: Sf9 insect cells
Assay: Biochemical Characterization Assay: HTRF kinase assay, GST-PLK1 phosphorylation of GST-p53
Details: GST-PLK1, GST-p53 substrate
Summary of the method: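 Full-length active GST-PLK1 (Sf9, 3 ug/mL) phosphorylated full-length GST-p53 (E. coli) in Kinase Assay Buffer for 35 min at 37 °C. Stopped with EDTA; phospho-p53 detected by HTRF with anti-phospho-p53, Eu-anti-rabbit and APC-anti-GST antibodies.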

T1 sequence (P53350 whole entry): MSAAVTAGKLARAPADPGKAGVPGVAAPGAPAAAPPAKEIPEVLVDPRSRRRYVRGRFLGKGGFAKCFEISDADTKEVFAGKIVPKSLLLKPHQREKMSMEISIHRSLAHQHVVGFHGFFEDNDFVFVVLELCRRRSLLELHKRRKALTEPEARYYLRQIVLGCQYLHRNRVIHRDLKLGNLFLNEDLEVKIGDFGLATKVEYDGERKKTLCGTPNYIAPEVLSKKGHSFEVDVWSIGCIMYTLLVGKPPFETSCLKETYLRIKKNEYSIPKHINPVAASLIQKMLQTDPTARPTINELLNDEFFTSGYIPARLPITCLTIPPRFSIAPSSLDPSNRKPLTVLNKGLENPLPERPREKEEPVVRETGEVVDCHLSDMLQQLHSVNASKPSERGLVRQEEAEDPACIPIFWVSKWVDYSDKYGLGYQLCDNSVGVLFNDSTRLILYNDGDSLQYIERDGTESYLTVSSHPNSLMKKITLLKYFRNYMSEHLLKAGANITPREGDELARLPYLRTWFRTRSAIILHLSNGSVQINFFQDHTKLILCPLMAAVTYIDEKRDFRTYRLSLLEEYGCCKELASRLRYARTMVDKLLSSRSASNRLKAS

Row | IC50 [nM] | Compound
1 | 1 to 50 | CNC(=O)c1ccc(Nc2ncc3c(n2)N(C2CCCC2)CC(F)(F)C(=O)N3C)c(F)c1 [Example I-228, 4-(9-cyclopentyl-7,7-difluoro-5-methyl-6-oxo-6,7,8,9-tetrahydro-5H-pyrimido[4,5-b][1,4]diazepin-2-ylamino)-3-fluoro-N-methyl-benzamide]
2 | 1 to 50 | CN1C(=O)C(F)(F)CN(C2CCCC2)c2nc(Nc3ccc(C(=O)NC4CCNCC4)cc3F)ncc21 [Example I-230, 4-(9-cyclopentyl-7,7-difluoro-5-methyl-6-oxo-6,7,8,9-tetrahydro-5H-pyrimido[4,5-b][1,4]diazepin-2-ylamino)-3-fluoro-N-piperidin-4-yl-benzamide]
3 | 1 to 50 | CN1C(=O)C(F)(F)CN(C2CCCC2)c2nc(Nc3ccc(C(N)=O)cc3F)ncc21 [Example I-231, 4-(9-cyclopentyl-7,7-difluoro-5-methyl-6-oxo-6,7,8,9-tetrahydro-5H-pyrimido[4,5-b][1,4]diazepin-2-ylamino)-3-fluoro-benzamide]
4 | 1 to 50 | CNC(=O)c1cc(F)c(Nc2ncc3c(n2)N(C2CCCC2)CC(F)(F)C(=O)N3C)cc1F [Example I-238, 4-(9-cyclopentyl-7,7-difluoro-5-methyl-6-oxo-6,7,8,9-tetrahydro-5H-pyrimido[4,5-b][1,4]diazepin-2-ylamino)-2,5-difluoro-N-methyl-benzamide]
5 | 1 to 50 | CNC(=O)c1ccc(Nc2ncc3c(n2)N(C2CCCC2)CC(F)(F)C(=O)N3C)c(F)c1F [Example I-245]
6 | 1 to 50 | COc1cc(C(=O)O)ccc1Nc1ncc2c(n1)N(C1CCCCC1)CC(F)(F)C(=O)N2C [Example I-246, 4-(9-cyclohexyl-7,7-difluoro-5-methyl-6-oxo-6,7,8,9-tetrahydro-5H-pyrimido[4,5-b][1,4]diazepin-2-ylamino)-3-methoxy-benzoic acid]
7 | 1 to 50 | COc1cc(C(N)=O)ccc1Nc1ncc2c(n1)N(C1CCCCC1)CC(F)(F)C(=O)N2C [Example I-248, 4-(9-cyclohexyl-7,7-difluoro-5-methyl-6-oxo-6,7,8,9-tetrahydro-5H-pyrimido[4,5-b][1,4]diazepin-2-ylamino)-3-methoxy-benzamide]
8 | 1 to 50 | CNC(=O)c1ccc(Nc2ncc3c(n2)N(C2CCCCC2)CC(F)(F)C(=O)N3C)c(OC)c1 [Example I-249, 4-(9-cyclohexyl-7,7-difluoro-5-methyl-6-oxo-6,7,8,9-tetrahydro-5H-pyrimido[4,5-b][1,4]diazepin-2-ylamino)-3-methoxy-N-methyl-benzamide]
9 | 1 to 50 | CNC(=O)c1ccc(Nc2ncc3c(n2)N(C2CCCCC2)CC(F)(F)C(=O)N3C)cc1 [Example I-258, 4-(9-cyclohexyl-7,7-difluoro-5-methyl-6-oxo-6,7,8,9-tetrahydro-5H-pyrimido[4,5-b][1,4]diazepin-2-ylamino)-N-methyl-benzamide]

Further lines, the compound ahead of its results:

Row | Compound | IC50 [nM]
10 | CN1C(=O)C(F)(F)CN(C2CCCC2)c2nc(Nc3ccc(C(=O)NC4CCN(C(=O)OC(C)(C)C)CC4)cc3F)ncc21 [Example I-229, 4-[4-(9-cyclopentyl-7,7-difluoro-5-methyl-6-oxo-6,7,8,9-tetrahydro-5H-pyrimido[4,5-b][1,4]diazepin-2-ylamino)-3-fluoro-benzoylamino]-piperidine-1-carboxylic acid tert-butyl ester] | 1 to 50
11 | CN1CCC(NC(=O)c2cc(F)c(Nc3ncc4c(n3)N(C3CCCC3)CC(F)(F)C(=O)N4C)cc2F)CC1 [Example I-233, 4-(9-cyclopentyl-7,7-difluoro-5-methyl-6-oxo-6,7,8,9-tetrahydro-5H-pyrimido[4,5-b][1,4]diazepin-2-ylamino)-2,5-difluoro-N-(1-methyl-piperidin-4-yl)-benzamide] | 1 to 50
12 | CCN1CCC(NC(=O)c2cc(F)c(Nc3ncc4c(n3)N(C3CCCC3)CC(F)(F)C(=O)N4C)cc2F)CC1 [Example I-234, 4-(9-cyclopentyl-7,7-difluoro-5-methyl-6-oxo-6,7,8,9-tetrahydro-5H-pyrimido[4,5-b][1,4]diazepin-2-ylamino)-N-(1-ethyl-piperidin-4-yl)-2,5-difluoro-benzamide] | 1 to 50
13 | CN1C(=O)C(F)(F)CN(C2CCCC2)c2nc(Nc3cc(F)c(C(=O)NC4CCOCC4)cc3F)ncc21 [Example I-235, 4-(9-cyclopentyl-7,7-difluoro-5-methyl-6-oxo-6,7,8,9-tetrahydro-5H-pyrimido[4,5-b][1,4]diazepin-2-ylamino)-2,5-difluoro-N-(tetrahydro-pyran-4-yl)-benzamide] | 1 to 50
14 | CN(C)CCNC(=O)c1cc(F)c(Nc2ncc3c(n2)N(C2CCCC2)CC(F)(F)C(=O)N3C)cc1F [Example I-236, 4-(9-cyclopentyl-7,7-difluoro-5-methyl-6-oxo-6,7,8,9-tetrahydro-5H-pyrimido[4,5-b][1,4]diazepin-2-ylamino)-N-(2-dimethylamino-ethyl)-2,5-difluoro-benzamide] | 1 to 50
15 | CN(C)CCCNC(=O)c1cc(F)c(Nc2ncc3c(n2)N(C2CCCC2)CC(F)(F)C(=O)N3C)cc1F [Example I-237, 4-(9-cyclopentyl-7,7-difluoro-5-methyl-6-oxo-6,7,8,9-tetrahydro-5H-pyrimido[4,5-b][1,4]diazepin-2-ylamino)-N-(3-dimethylamino-propyl)-2,5-difluoro-benzamide] | 1 to 50
16 | CN1C(=O)C(F)(F)CN(C2CCCC2)c2nc(Nc3cc(F)c(C(=O)NC4CCN(C(=O)OC(C)(C)C)CC4)cc3F)ncc21 [Example I-239, 4-[4-(9-cyclopentyl-7,7-difluoro-5-methyl-6-oxo-6,7,8,9-tetrahydro-5H-pyrimido[4,5-b][1,4]diazepin-2-ylamino)-2,5-difluoro-benzoylamino]-piperidine-1-carboxylic acid tert-butyl ester] | 51 to 500
17 | CN1C(=O)C(F)(F)CN(C2CCCC2)c2nc(Nc3cc(F)c(C(=O)NC4CCNCC4)cc3F)ncc21 [Example I-240, 4-(9-cyclopentyl-7,7-difluoro-5-methyl-6-oxo-6,7,8,9-tetrahydro-5H-pyrimido[4,5-b][1,4]diazepin-2-ylamino)-2,5-difluoro-N-piperidin-4-yl-benzamide] | 1 to 50
18 | CN1C(=O)C(F)(F)CN(C2CCCC2)c2nc(Nc3cc(F)c(C(N)=O)cc3F)ncc21 [Example I-241, 4-(9-cyclopentyl-7,7-difluoro-5-methyl-6-oxo-6,7,8,9-tetrahydro-5H-pyrimido[4,5-b][1,4]diazepin-2-ylamino)-2,5-difluoro-benzamide] | 1 to 50
19 | CN1CCC(NC(=O)c2ccc(Nc3ncc4c(n3)N(C3CCCC3)CC(F)(F)C(=O)N4C)c(F)c2F)CC1 [Example I-243] | 1 to 50
20 | CCN1CCC(NC(=O)c2ccc(Nc3ncc4c(n3)N(C3CCCC3)CC(F)(F)C(=O)N4C)c(F)c2F)CC1 [Example I-244] | 1 to 50
21 | COc1cc(C(=O)NC2CCN(C)CC2)ccc1Nc1ncc2c(n1)N(C1CCCCC1)CC(F)(F)C(=O)N2C [Example I-247, 4-(9-cyclohexyl-7,7-difluoro-5-methyl-6-oxo-6,7,8,9-tetrahydro-5H-pyrimido[4,5-b][1,4]diazepin-2-ylamino)-3-methoxy-N-(1-methyl-piperidin-4-yl)-benzamide] | 1 to 50
22 | COc1cc(C(=O)NC2CCNCC2)ccc1Nc1ncc2c(n1)N(C1CCCCC1)CC(F)(F)C(=O)N2C [Example I-251, 4-(9-cyclohexyl-7,7-difluoro-5-methyl-6-oxo-6,7,8,9-tetrahydro-5H-pyrimido[4,5-b][1,4]diazepin-2-ylamino)-3-methoxy-N-piperidin-4-yl-benzamide] | 1 to 50
23 | COc1cc(C(=O)NC2CCOCC2)ccc1Nc1ncc2c(n1)N(C1CCCCC1)CC(F)(F)C(=O)N2C [Example I-252, 4-(9-cyclohexyl-7,7-difluoro-5-methyl-6-oxo-6,7,8,9-tetrahydro-5H-pyrimido[4,5-b][1,4]diazepin-2-ylamino)-3-methoxy-N-(tetrahydro-pyran-4-yl)-benzamide] | 1 to 50
24 | COc1cc(C(=O)NCCN(C)C)ccc1Nc1ncc2c(n1)N(C1CCCCC1)CC(F)(F)C(=O)N2C [Example I-253, 4-(9-cyclohexyl-7,7-difluoro-5-methyl-6-oxo-6,7,8,9-tetrahydro-5H-pyrimido[4,5-b][1,4]diazepin-2-ylamino)-N-(2-dimethylamino-ethyl)-3-methoxy-benzamide] | 1 to 50
25 | COc1cc(C(=O)NCCCN(C)C)ccc1Nc1ncc2c(n1)N(C1CCCCC1)CC(F)(F)C(=O)N2C [Example I-254, 4-(9-cyclohexyl-7,7-difluoro-5-methyl-6-oxo-6,7,8,9-tetrahydro-5H-pyrimido[4,5-b][1,4]diazepin-2-ylamino)-N-(3-dimethylamino-propyl)-3-methoxy-benzamide] | 1 to 50
26 | CCN1CCC(NC(=O)c2ccc(Nc3ncc4c(n3)N(C3CCCCC3)CC(F)(F)C(=O)N4C)c(OC)c2)CC1 [Example I-255, 4-(9-cyclohexyl-7,7-difluoro-5-methyl-6-oxo-6,7,8,9-tetrahydro-5H-pyrimido[4,5-b][1,4]diazepin-2-ylamino)-N-(1-ethyl-piperidin-4-yl)-3-methoxy-benzamide] | 1 to 50
27 | CN1C(=O)C(F)(F)CN(C2CCCCC2)c2nc(Nc3ccc(C(=O)O)cc3)ncc21 [Example I-256, 4-(9-cyclohexyl-7,7-difluoro-5-methyl-6-oxo-6,7,8,9-tetrahydro-5H-pyrimido[4,5-b][1,4]diazepin-2-ylamin)-benzoic acid] | 1 to 50
28 | CN1C(=O)C(F)(F)CN(C2CCCCC2)c2nc(Nc3ccc(C(N)=O)cc3)ncc21 [Example I-257, 4-(9-cyclohexyl-7,7-difluoro-5-methyl-6-oxo-6,7,8,9-tetrahydro-5H-pyrimido[4,5-b][1,4]diazepin-2-ylamino)-benzamide] | 1 to 50
29 | CN1C(=O)C(F)(F)CN(C2CCCCC2)c2nc(Nc3ccc(C(=O)NC4CCNCC4)cc3)ncc21 [Example I-260, 4-(9-cyclohexyl-7,7-difluoro-5-methyl-6-oxo-6,7,8,9-tetrahydro-5H-pyrimido[4,5-b][1,4]diazepin-2-ylamino)-N-piperidin-4-yl-benzamide] | 1 to 50
